# PMC7730513, “A Topical Formulation of Melatoninergic Compounds Exerts Strong Hypotensive and Neuroprotective Effects in a Rat Model of Hypertensive Glaucoma” (International Journal of Molecular Sciences, 2020)
# pKi: −log10 of the molar value. Where “and” joins values, the source holds several entries; their conditions need not be identical. Identical values can stand only once. Entries after “also recorded” stand apart in the source; their conditions may differ. Like-named read-outs stand apart in the source and are kept apart here.
# How the values were obtained:
# IL-10 = test: Western blot of retinal homogenates, IL-10; format: in vivo, rat; conditions: retina, MCE model, versus respective vehicle
# Description: (§1) The model was originally developed in rabbits and then applied to rodents. It is based on the injection of 2% MCE in sterile saline in the anterior chamber of the eye. The MCE used in the present study (M0512; Sigma Aldrich, St. Louis, MO, USA) is pure and has a molecular weight of about 88,000 and, when dissolved in aqueous solution at 2% gives a solution with a viscosity ranging from 3500 to 5600 cps. Rats, anesthetized with an intraperitoneal injection of pentobarbital (30 mg/kg), were injected into the anterior chamber with 15 µL of MCE in both eyes using a 18G needle in agreement with published protocols. […] The eyes of each rat were evaluated for unintended adverse effects of intraocular injection -e.g., cataract, corneal opacity or edema that could impact electrophysiological parameters and/or tonometer accuracy. […]
# (§2) After animal euthanization with an overdose of pentobarbital, retinas were isolated and stored at −80 °C. […] Protein concentration was measured using the Micro BCA Protein Assay (Thermo Fisher Scientific, Waltham, MA, USA). […] Blots were blocked for 1 h with 5% skim milk and incubated overnight at 4 °C with the primary antibodies listed in Supplementary Table S1 that are routinely used to detect the inflammatory and the apoptotic markers as determined in the present study. β-actin was used as loading control. […]
# [1] = tested on: MCE rat model of hypertensive glaucoma; test: IOP measurement by tonometry in the MCE model; format: in vivo; conditions: after two weeks of eye drops twice a day; in respect to the respective vehicle (vehicle 1 saline for timolol, brimonidine; vehicle 2 nanomicellar for melatonin/agomelatine)
# Description: (§3) The model was originally developed in rabbits and then applied to rodents. It is based on the injection of 2% MCE in sterile saline in the anterior chamber of the eye. The MCE used in the present study (M0512; Sigma Aldrich, St. Louis, MO, USA) is pure and has a molecular weight of about 88,000 and, when dissolved in aqueous solution at 2% gives a solution with a viscosity ranging from 3500 to 5600 cps. Rats, anesthetized with an intraperitoneal injection of pentobarbital (30 mg/kg), were injected into the anterior chamber with 15 µL of MCE in both eyes using a 18G needle in agreement with published protocols. […] The eyes of each rat were evaluated for unintended adverse effects of intraocular injection -e.g., cataract, corneal opacity or edema that could impact electrophysiological parameters and/or tonometer accuracy.
# (§4) Eye drops (10 µL) were administered to both eyes two times a day over two weeks after MCE injection. Eye drops were instilled at 10 a.m. and at 6 p.m.
# [2] = tested on: MCE rat model of hypertensive glaucoma; test: Photopic full-field ERG, photopic negative response (PhNR); format: in vivo; conditions: two weeks after MCE; versus respective vehicle
# Description: as §3, §4
# Bax/Bcl-2 = test: Western blot of retinal homogenates, Bax/Bcl-2 ratio; format: in vivo, rat; conditions: retina, MCE model, versus respective vehicle
# Description: as §1, §2
# TNF-α = test: Western blot of retinal homogenates, TNF-α; format: in vivo, rat; conditions: retina, MCE model, versus respective vehicle
# Description: as §1, §2
# Iba1 = test: Western blot of retinal homogenates, Iba1; format: in vivo, rat; conditions: retina, MCE model, versus respective vehicle
# Description: as §1, §2
# IL-1β = test: Western blot of retinal homogenates, IL-1β; format: in vivo, rat; conditions: retina, MCE model, versus respective vehicle
# Description: as §1, §2
# GFAP = test: Western blot of retinal homogenates, GFAP; format: in vivo, rat; conditions: retina, MCE model, versus respective vehicle
# Description: as §1, §2
# IL-6 = test: Western blot of retinal homogenates, IL-6; format: in vivo, rat; conditions: retina, MCE model, versus respective vehicle
# Description: as §1, §2
# IL-4 = test: Western blot of retinal homogenates, IL-4; format: in vivo, rat; conditions: retina, MCE model, versus respective vehicle
# Description: as §1, §2
# [3] = tested on: MCE rat model of hypertensive glaucoma; test: Pattern ERG (PERG); format: in vivo; conditions: two weeks after MCE
# Description: as §3, §4
# PERG responses, mainly generated by RGC activity, can be useful for assessing RGC function in conditions such as glaucoma and ischemic optic neuropathy. PERG responses were evoked using an alternating pattern of black and white horizontal bars delivered on a stimulus display unit from a commercially available PERG system (SB700 Advanced, Nikon-Europe, Amsterdam, The Netherlands). Stimuli consisted in 0.05 cycles/deg black and white bars reversing at 1 Hz presented at 98% contrast. The pattern stimuli were administered through a light emitting diode display with a mean luminance of 50 cd/m^2 aligned at about 20 cm from the corneal surface. A total of 200 signals were averaged. Each animal was placed at the same fixed position in front of the monitor to prevent recording variability due to animal placement. PERG recordings were sequentially conducted in both eyes. The PERG response was evaluated by measuring the amplitude of the N35-P50 wave (from the trough of the negative peak N35, a small deflection near 35 ms after the stimulus, to the peak of the positive peak P50, a deflection near 50 ms after the stimulus) and the P50-N95 wave (from the peak of the positive peak P50 to the trough of the negative peak N95, a deflection near 95 ms after the stimulus). The implicit time was determined by measuring the time from the onset of the stimulus to the P50 and N95 peaks.
# Brn3a-positive RGCs = test: RGC density by Brn3a immunohistochemistry in retinal flat mounts; format: in vivo, rat; conditions: for RGC loss spared: MCE reduced RGC density by about 29%; for RGC density (% of control), Central: central retina; for RGC density (% of control), Central / RGC density (% of control), Middle / RGC density (% of control), Peripheral: MCE + treatment, mean ± SEM, n = 6; for RGC density (% of control), Middle: middle retina; for RGC density (% of control), Peripheral: peripheral retina
# Description: as §3, §4
# After animal euthanization with an overdose of pentobarbital, six retinas from independent rats for each experimental group were explanted. Retinas were then fixed for 90 min at 4 °C in 4% paraformaldehyde in 0.1 M phosphate buffer (PB) and stored at 4 °C in 25% sucrose in 0.1 M PB. Retinal ganglion cells were labeled incubating the retinas for 24 h at 4 °C with a mouse monoclonal antibody against Brn3a (1:100 in PB containing 5% BSA and 2% TritonX-100; sc-8429; Santa Cruz Biotechnology, Santa Cruz, CA, USA). Retina whole mounts were then washed with PB and incubated overnight at 4 °C in an AlexaFluor555-conjugated secondary antibody (1:100; A-32727; Molecular Probes, Eugene, OR, USA). Finally, retinas were washed with PB, mounted on glass slides with the photoreceptor side facing down and viewed with a fluorescence microscope (Ni-E; Nikon-Europe, Amsterdam, The Netherlands). Images of the entire retina were acquired by a DS-Fi1c camera (Nikon-Europe) and Brn3a-positive cells were counted using the NIS-Elements software (Nikon-Europe). […] In total, 12 images were taken from each retina. The density of Brn3a-positive cells (number of cells per mm^2) was compared between the different experimental groups. Quantification was performed in a masked manner.
# active caspase 3 = test: Western blot of retinal homogenates, active caspase 3; format: in vivo, rat; conditions: retina, MCE model, versus respective vehicle
# Description: as §1, §2
# [4] = brimonidine eye drops in monkeys; cited from earlier work
# [5] = after administration of 0.1% eye drops; cited from earlier work
# [6] = Sprague-Dawley, rat, in vivo, 2 h
# Description: (§5) Two hours after the last treatment, animals were euthanized with an overdose of pentobarbital and the eye globes removed. One eye of each rat was taken whole, while the fellow eyes were dissected, and retinas and vitreous humors were separately taken. Whole eyes were cut in small pieces and separately homogenized with an Ultra-turrax homogenizer for 3 min on ice at 4 °C in 0.25 mL of methanol, then subjected to 1 min of ultrasonication in a cold-water bath. The five retinas were pooled together and extracted as before in 0.1 mL of methanol. Each vitreous body was diluted with 0.05 mL of methanol and sonicated. All samples were finally centrifuged 10 min at 10,000× g rpm and the supernatants were saved frozen for further analysis. […] The operational MS parameters of the instrument were: gas temperature, 350 °C; gas flow, 5 L/min; nebulizer, 20 psi; capillary, 3500 V; collision energy, 15 V; dwell-time, 200 msec; fragmentor, 135 V.
# in vivo = conditions: rat
# Description: as §5
# MT2 melatonin receptor = conditions: read-out: Affinity of MT2 melatonin receptor; cited from earlier work
# [7] = Pharmacokinetics study: eye tissue distribution of melatonin/agomelatine eye drops by HPLC/MS/MS in healthy rats; conditions: for concentration at 2 h: rat, topical, 40 µg
# Description: as §5
# MT1 melatonin receptor = conditions: read-out: Affinity of MT1 melatonin receptor; cited from earlier work
# [8] = of 120 µg given in 3 administrations of 40 µg
"Amplitude of the N35-P50 and P50-N95 waves, effect versus vehicle [3]",MCE-induced increase in the implicit time of the P50 and N95 components [3],SMILES,Increase of IL-10 levels (IL-10),PhNR amplitude [2],Reduction of the Bax/Bcl-2 ratio (Bax/Bcl-2),Reduction of TNF-α levels (TNF-α),Reduction of Iba1 levels (Iba1),Reduction of IL-1β levels (IL-1β),Reduction of GFAP levels (GFAP),Reduction of IL-6 levels (IL-6),Increase of IL-4 levels (IL-4),RGC loss spared (Brn3a-positive RGCs),"RGC density (% of control), Central (Brn3a-positive RGCs)","RGC density (% of control), Middle (Brn3a-positive RGCs)","RGC density (% of control), Peripheral (Brn3a-positive RGCs)",Decrease of the levels of the active form of caspase 3 (active caspase 3),pKi (MT2 melatonin receptor),other results
did not differ,did not affect,CC(C)(C)NC[C@H](O)COc1nsnc1N1CCOCC1 [timolol],did not affect,did not differ,about 1.6 fold,did not affect,did not affect,did not affect,did not affect,did not affect,did not affect,about 11%,"78 ± 4 *^,§ % of control","83 ± 3 *^,§ % of control","81 ± 4 *^,§ % of control",about 1.3 fold,–,Reduction of the MCE-induced increase in IOP [1]: about 32%
partly prevented the reduction,prevented,Brc1c(NC2=NCCN2)ccc2nccnc12 [brimonidine],did not affect,almost restoring the PhNR amplitude to control levels,~9.7 fold,did not affect,not affecting,did not affect,about 1.6 fold,did not affect,did not affect,spared almost completely; also recorded: almost completely prevented,88 ± 3 % of control,91 ± 6 % of control,91 ± 3 % of control,~2.2 fold,–,"Concentration values after eye drops [4]: around 80 nM; Vitreous concentration [5]: 2 nM; Amplitude of the P50-N95 wave, lower than in controls ([3]; MCE alone about 55% reduced): ~25%; Amplitude of the N35-P50 wave, lower than in controls ([3]; MCE alone about 60% reduced): about 24%"
–,–,COc1ccc2[nH]cc(CCNC(C)=O)c2c1 [melatonin],–,–,–,–,–,–,–,–,–,–,–,–,–,–,9.42,"Fraction of the 120 µg given retained in the whole eye [6]: roughly 1%; concentration at 2 h (in vivo; Sprague-Dawley, Concentration in the retina (molar)): ~17 nM; concentration at 2 h (in vivo; Concentration in the retina (molar)): 17 nM; concentration at 2 h (in vivo; Concentration in the vitreous humor (molar)): 43 nM"
–,–,COc1ccc2cccc(CCNC(C)=O)c2c1 [agomelatine],–,–,–,–,–,–,–,–,–,–,–,–,–,–,9.92,"concentration at 2 h ([7]; Sprague-Dawley, retina, Concentration in the retina (molar), converted from ng/mg): ~378 nM; concentration at 2 h ([7]; Sprague-Dawley, retina, Concentration, pool of retinas, pool of retinas of animals 1 to 5, 3 x 40 µg eye drops, 2 h after last instillation): 96 ng/g; concentration at 2 h ([7]; Sprague-Dawley, vitreous humor, Concentration, vitreous, individual animals 1-5, 3 x 40 µg eye drops, 2 h after last instillation): 71 ng/g; concentration at 2 h ([7]; Sprague-Dawley, vitreous humor, Concentration, vitreous, mean, mean of 5 animals, 3 x 40 µg eye drops, 2 h after last instillation): 80 ng/g; concentration at 2 h ([7]; Sprague-Dawley, whole eye, Concentration, whole eye, individual animals 1-5, 3 x 40 µg as 10 µL eye drops 2 h apart, sampled 2 h after last instillation): 10900 ng/g; concentration at 2 h ([7]; Sprague-Dawley, whole eye, Concentration, whole eye, mean, mean of 5 animals, 3 x 40 µg eye drops, 2 h after last instillation): 9940 ng/g; Content in the whole eye relative to melatonin ([7]; agomelatine 9.94 ng/mg vs melatonin 7.44 ng/mg): 1.33 times; Concentration, whole eye ([7]; individual animals 1-5, 3 x 40 µg as 10 µL eye drops 2 h apart, sampled 2 h after last instillation): 10.64 ng/mg and 11.35 ng/mg and 9.16 ng/mg and 7.67 ng/mg; Concentration, vitreous ([7]; individual animals 1-5, 3 x 40 µg eye drops, 2 h after last instillation): 0.073 ng/mg and 0.099 ng/mg and 0.077 ng/mg and 0.084 ng/mg; Concentration, vitreous, mean ([7]; mean of 5 animals, 3 x 40 µg eye drops, 2 h after last instillation): 0.081 ng/mg; Amount retained in the whole eye [7, 8]: 1.59 µg; Fraction of the 120 µg given retained in the whole eye [7, 8]: ~1.3%; concentration at 2 h ([7]; retina, Concentration in the retina (molar), converted from ng/mg): 378 nM; concentration at 2 h ([7]; vitreous humor, Concentration in the vitreous humor (molar), converted from ng/mg): 332 nM; Retina concentration relative to melatonin ([7]; retina): twenty-two times higher; pKi (MT1 melatonin receptor): 11.00"
